Publication PMC6508677, “Identification of druggable small molecule antagonists of the Plasmodium falciparum hexose transporter PfHT and assessment of ligand access to the glucose permeation pathway via FLAG-mediated protein engineering” (PLoS ONE, 2019)
Several values for one entry are separate records, joined by “and”; a condition that tells them apart may be missing. Equal entries are not always repeated. Where two headings read alike, the source gives them in different places.

What was measured:
[1] = target: T1, hGLUT4 (Homo sapiens, UniProt P14672); assay: 2-DG uptake by HEK293 cells overexpressing hGLUT4; type: cell-based; details: for remaining activity at 0.001 µM: 0.001 µM compound; for remaining activity at 0.001 µM / remaining activity at 1.25 µM / remaining activity at 2.5 µM / remaining activity at 5 µM / remaining activity at 10 µM / remaining activity at 20 µM / remaining activity at 40 µM / remaining activity at 80 µM / remaining activity at 160 µM / remaining activity at 225 µM: read-out: 2-DG uptake (percent uptake relative to vehicle), AVE per experiment; for remaining activity at 1.25 µM: 1.25 µM compound; for remaining activity at 20 µM: 20 µM compound; for remaining activity at 40 µM: 40 µM compound; for remaining activity at 80 µM: 80 µM compound; for remaining activity at 160 µM: 160 µM compound; for remaining activity at 225 µM: 225 µM compound; for IC50: IC50 for inhibition of 2-DG uptake
T1 construct: expressed in transfected cells; host or cells: HEK293 (HEK293-FLIP, native hGLUT1 knocked down by shRNA)
T1 sequence (P14672 1-509): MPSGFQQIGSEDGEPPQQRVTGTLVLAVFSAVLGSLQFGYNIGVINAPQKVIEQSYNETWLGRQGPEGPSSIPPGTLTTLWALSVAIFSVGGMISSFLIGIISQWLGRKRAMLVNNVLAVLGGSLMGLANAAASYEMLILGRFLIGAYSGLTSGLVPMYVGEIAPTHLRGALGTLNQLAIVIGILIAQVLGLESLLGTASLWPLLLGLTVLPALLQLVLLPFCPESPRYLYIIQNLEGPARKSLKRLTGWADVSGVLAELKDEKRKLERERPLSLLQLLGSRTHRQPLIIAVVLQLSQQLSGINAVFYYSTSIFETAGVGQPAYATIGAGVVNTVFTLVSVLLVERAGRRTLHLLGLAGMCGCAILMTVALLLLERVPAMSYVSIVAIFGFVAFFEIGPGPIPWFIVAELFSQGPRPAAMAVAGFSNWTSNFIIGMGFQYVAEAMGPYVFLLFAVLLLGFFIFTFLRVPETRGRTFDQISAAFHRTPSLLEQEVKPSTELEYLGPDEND
Description: Generation of HEK293 cells overexpressing PfHT and human GLUTs 1–4 were described elsewhere. Briefly, HEK293 cells were transfected with pcDNA3.1 FLII12Pglu-7006 (Addgene), containing the fluorescence resonance energy transfer (FRET) glucose sensor (HEK293-FLIP) and PfHT, human GLUT1 (hGLUT1), hGLUT2, hGLUT3, hGLUT4, hGLUT5 or hGLUT8 using Optifect (Life Technologies) according to manufacturer’s specifications. To increase retention of GLUT8 at the plasma membrane, the dileucine sorting signal E^7E^8XXXLL was modified to R^7R^8XXXLL as described in [17]. Stable transfectants were selected for G418 and hygromycin resistance to select for FRET sensor and hexose transporter, respectively. HEK293-FLIP cells were also used to generate cells stably transfected with FLAG-tagged PfHT (FTPfHT). FLAG tag ([…]) followed by a triple glycine linker and a tobacco etch virus (TEV) protease site (ENLYFQS) followed by a triple glycine linker was added to the N-terminus of PfHT via PCR [18] using Phusion Hot Start II High-Fidelity DNA Polymerase (Fisher Scientific). Single clones were selected by comparing their abilities to transport glucose as assayed via FRET and radiolabeled hexose uptake. In all cell lines, except for HEK293 cells overexpressing hGLUT1 and hGLUT5, native hGLUT1 was knocked down using shRNA as described elsewhere. Transcript levels of the individual GLUTs expressed in each cell line are as described in [13, 15] and in S1 Fig.
Glucose uptake by P. falciparum was performed essentially as described. P. falciparum strain 3D7 was cultured in 100 mm tissue culture dishes (Techno Plastic Products) in a 2% suspension of human erythrocytes and RPMI 1640 medium until reaching > 7.5% parasitemia. Cells were pelleted via centrifugation and resuspended in RPMI 1640 medium. To determine the uptake of radiolabeled glucose into the parasite, parasites were isolated from infected erythrocytes by permeablization with saponin (0.05 w/v), followed by centrifugation, aspiration of supernatant and washing of the pellet 3X with saline solution (135 mM NaCl, 2 mM KCl, 25 mM HEPES, 0.2 mM glucose and 1 mM MgCl2; pH 7.1) to remove cellular debris. WU-1 or DMSO vehicle were added to 100 μl parasites (resuspended in saline) 5 min prior to the addition of 100 μl [^14C]2-DOG (0.2- μCi/ml final concentration). 2-DG uptake was stopped after 2 min by layering the entire reaction over 300 μl of an oil mixture (5:4 mix of dibutyl phthalate / dinonyl phthalate) in Eppendorf tubes and centrifuged at 15,850 × g for 2 mins. The ratio of the estimated intracellular concentration of radiolabel relative to the extracellular concentration were calculated as described. Uptake of radiolabeled hexose into HEK293 cells was measured in glucose-free HBSS as described previously. Briefly, cells were plated at 400,000 cells/well overnight at 37°C in 24-well plates pre-treated with PEI. After 30-min incubation at 37°C in glucose-free HBSS in the presence of vehicle or increasing concentrations of compound, 2-DG uptake was measured in glucose-free HBSS for 4 min at 37°C. Cultures were washed in ice-cold 1X PBS and lysed in 0.1% Triton X-100 in 1X PBS. Radiolabeled hexose uptake was determined by liquid scintillation counting (Ultima Gold, Thermo Fisher) and normalized to total protein per well. Uptake data are plotted as percent uptake relative to vehicle-treated cells. Kinetic analyses were performed using the indicated concentrations of substrate and WU-1, with quenching of uptake after 1 min incubation. Incubation times had been previously determined as being in the linear range of time-dependent radiolabeled hexose uptake (2 min for 2-DG uptake into freed parasites; 2 and 4 min for D-Frc and 2-DG uptake HEK cell lines, respectively). Data were fit by least squares nonlinear regression analysis using GraphPad Prism 6.0 software.

[2] = system: P. falciparum strain 3D7; assay: P. falciparum growth inhibition assay (Picogreen DNA content, 3 days); type: cell-based, Plasmodium falciparum; details: for IC50: 3D7, 3D7, Expt 1-3, read-out: IC50 for inhibition of parasite growth, individual experiments; for EC50: P. falciparum 3D7 intraerythrocytic forms, 3 days, mean, read-out: EC50 (IC50 in Fig 4A) for inhibition of parasite growth
Description: P. falciparum strain 3D7 was obtained from the Malaria Research and Reference Reagent Resource Center (MR4, ATCC, Manassas, VA). Parasites were cultured in a 2% suspension of human erythrocytes and RPMI 1640 (Sigma) medium supplemented with 27 mM sodium bicarbonate, 11 mM glucose, 5 mM HEPES, 1 mM sodium pyruvate, 0.37 mM hypoxanthine, 0.01 mM thymidine, 10 μg/ml gentamicin, and 0.5% Albumax (Gibco) at 37°C, 5% O2/ 5% CO2 / 90% N2 atmosphere as previously described.
Asynchronous P. falciparum cultures were diluted to 1% parasitemia and were treated with compounds at concentrations ranging from 0.195 μM—100 μM. Growth inhibition assays were performed in 100 μl cultures in opaque 96-well plates. Parasite growth was quantified after 3 days by measuring DNA content using Picogreen (Life Technologies)[22]. Fluorescence was measured by a FLUOstar Omega microplate reader (BMG Labtech) at 485 nm excitation and 528 nm emission. IC50 values were calculated by least squares nonlinear regression analysis using GraphPad Prism 6.0 software.

[3] = HEK293, 4 min, GLUT4, 2.5 µM compound
[4] = HEK293, 4 min, GLUT4, 5 µM compound
[5] = HEK293, 4 min, GLUT4, 10 µM compound
[6] = GLUT4 cell line, mean/reported value
[7] = Plasmodium falciparum, 3D7, 72 h

Row | Structure (SMILES) | remaining activity at 0.001 µM ([1]; HEK293, 4 min, GLUT4) [%] | remaining activity at 1.25 µM ([1]; HEK293, 4 min, GLUT4) [%] | remaining activity at 2.5 µM [1, 3] [%] | remaining activity at 5 µM [1, 4] [%] | remaining activity at 10 µM [1, 5] [%] | remaining activity at 20 µM ([1]; HEK293, 4 min, GLUT4) [%] | remaining activity at 40 µM ([1]; HEK293, 4 min, GLUT4) [%] | remaining activity at 80 µM ([1]; HEK293, 4 min, GLUT4) [%] | remaining activity at 160 µM ([1]; HEK293, 4 min, GLUT4) [%] | remaining activity at 225 µM ([1]; HEK293, 4 min, GLUT4) [%] | IC50 [1, 6] [µM] | IC50 ([2]; Plasmodium falciparum) [µM] | EC50 [2, 7] [µM] | Parasite kill curve raw reading (Picogreen fluorescence), duplicate wells of Expt 1-3 ([2]; concentration 0.195312 (μM)) | Parasite kill curve raw reading (Picogreen fluorescence), duplicate wells of Expt 1-3 ([2]; concentration 0.390625 (μM)) | Parasite kill curve raw reading (Picogreen fluorescence), duplicate wells of Expt 1-3 ([2]; concentration 0.78125 (μM)) | Parasite kill curve raw reading (Picogreen fluorescence), duplicate wells of Expt 1-3 ([2]; concentration 1.5625 (μM)) | Parasite kill curve raw reading (Picogreen fluorescence), duplicate wells of Expt 1-3 ([2]; concentration 25 (μM)) | other results
1 | COc1c(Br)cc([N+](=O)[O-])c(OC)c1C(=O)NC(=O)Nc1c(C)cccc1Cl [WU-2, 3-(3-bromo-2,6-dimethoxy-5-nitrobenzoyl)-1-(2-chloro-6-methylphenyl)urea] | 100 | 95.3 | 91.7 | 86.8 | 88.3 | 74.1 | 66.7 | 61 | 55.7 | 63.7 | 18.5 ± 3.5 | 21.3 | 22.8 ± 0.8 | 56098 and 51137 and 60240 and 31267.2 and 43585.2 and 60791 | 62198 and 51117 and 53186 and 43543.2 and 40121.2 and 61300 | 60027 and 63524 and 61078 and 36660.2 and 37397.2 and 61445 | 62718 and 60757 and 53560 and 40753.2 and 35617.2 and 59505 | 31771 and 33221 and 31489 and 18075.2 and 22893.2 and 29768 | Maximum Inhibition (%) ([1]; 2-DG uptake, GLUT4 cell line): 40.0%; inhibition at 5 µM ([1]; HEK293, 4 min, GLUT4, 5 µM compound, read-out: % Inhibition of 2-DG uptake vs vehicle): 10 to 12%; IC50 ([1]; individual experiments, GLUT4, Expt 1-3): 14.2 µM and 25.4 µM and 15.9 µM; Parasite kill curve raw reading (Picogreen fluorescence), duplicate wells of Expt 1-3 ([2]; concentration 12.5 (μM)): 44791 and 46211 and 39233 and 29745.2 and 34796.2 and 56088
2 | Cc1ccc(S(=O)(=O)CCNC(=O)c2c(-c3c(Cl)cccc3Cl)noc2C)cc1 [WU-1, 3-(2,6-dichlorophenyl)-5-methyl-N-[2-(4-methylbenzenesulfonyl)ethyl]-1,2-oxazole-4-carboxamide] | 100 | 99.2 | 96.1 | 89.1 | 94 | 88.4 | 86.8 | 74.7 | 64.7 | 61.9 | > 100 | 4.66 | 5.5 ± 0.6 | 31647.2 and 35553.2 and 49650 and 55614 and 44370 and 49901 | 38759.2 and 38857.2 and 52621 and 61368 and 45376 and 55663 | 33807.2 and 31780.2 and 49005 and 55418 and 44284 and 47486 | 30912.2 and 34557.2 and 48254 and 53201 and 42714 and 48519 | 7109.17 and 9009.17 and 13213 and 12190 and 10238 and 11917 | IC50 for inhibition of 2-DG uptake, individual experiments ([1]; GLUT4, Expt 1-3): ambiguous; remaining activity at 5 µM ([1]; HEK293, 4 min): 102%; remaining activity at 10 µM ([1]; HEK293, 4 min): 83.2%; inhibition at 5 µM ([1]; HEK293, 4 min, read-out: % Inhibition of 2-DG uptake vs vehicle): -1.91%; EC50 [2]: 5.49 µM; Parasite kill curve raw reading (Picogreen fluorescence), duplicate wells of Expt 1-3 ([2]; concentration 3.125 (μM)): 26767.2 and 25415.2 and 46950 and 47685 and 35273 and 35563; Parasite kill curve raw reading (Picogreen fluorescence), duplicate wells of Expt 1-3 ([2]; concentration 6.25 (μM)): 20627.2 and 20040.2 and 32177 and 39080 and 23717 and 27707; Parasite kill curve raw reading (Picogreen fluorescence), duplicate wells of Expt 1-3 ([2]; concentration 50 (μM)): 6656.17 and 8203.17 and 11766 and 11899 and 11265 and 11133
3 | COc1cc(/C=C2\COC/C(=C\c3cc(OC)c(OC)c(OC)c3)C2=O)cc(OC)c1OC [WU-5, (3E,5E)-3,5-bis[(3,4,5-trimethoxyphenyl)methylidene]oxan-4-one] |  |  |  |  |  |  |  |  |  |  |  |  |  |  |  |  |  |  | inhibition at 2.5 µM ([1]; HEK293, 4 min, GLUT4, 2.5 µM compound, read-out: % Inhibition of 2-DG uptake vs vehicle): ~45%
